Values belong to the molecule of their own block, whether it stands above or below them.
Test: solvent given as SMILES

SMILES: CCCCN(CCCC)c1ccc(C#Cc2cc(C#Cc3ccc(C(F)(F)F)cc3)c(C#Cc3ccc(N(CCCC)CCCC)cc3)cc2C#Cc2ccc(C(F)(F)F)cc2)cc1
emission maximum (in ClCCl): 546 nm
emission maximum (in c1ccccc1): 506 nm

SMILES: CN(C)c1ccc(C#Cc2ccccc2)cc1
emission maximum (in C1CCCCC1): 344.99 nm
emission maximum (in C1CCOC1): 386 nm
emission maximum (in C1COCCO1): 372.49 nm
emission maximum (in CC1CCCO1): 377.5 nm
emission maximum (in CC#N): 415.51 nm
emission maximum (in CC(C)=O): 410.49 nm
emission maximum (in CC(C)CC(C)(C)C): 342.99 nm
emission maximum (in CC(C)O): 365 nm
emission maximum (in CCCCCCCCCCCCCCCC): 346.98 nm
emission maximum (in CCCCCCCCCCCCCCCCCl): 360.49 nm
emission maximum (in CCOC(C)=O): 382.5 nm
emission maximum (in CCOCC): 368.5 nm
emission maximum (in CN(C)C=O): 418.5 nm
emission maximum (in CO): 372 nm
emission maximum (in CS(C)=O): 423.5 nm
emission maximum (in Cc1ccccc1): 366.01 nm

SMILES: CCOC(=O)CSc1nc(-c2ccccc2)c(C)c(C#N)c1C#N
emission maximum (in C1COCCO1): 414 nm
emission maximum (in CC#N): 426 nm
emission maximum (in CCO): 434 nm
emission maximum (in CCOC(C)=O): 421 nm
emission maximum (in ClC(Cl)Cl): 435 nm
emission maximum (in c1ccccc1): 421 nm

SMILES: F[B-]1(F)Oc2ccccc2-c2nc(-c3ccccc3)c3cc(Cl)ccc3[n+]21
emission maximum (in Cc1ccccc1): 542 nm

SMILES: Cc1cc(-c2nnc(-c3c(C(C)C)cc(C(C)C)cc3C(C)C)o2)ccc1-n1c2ccccc2c2ccccc21
emission maximum (in CCO): 440 nm
emission maximum (in Cc1ccccc1): 375 nm

SMILES: C=Cc1cc2cc3c(cc2oc1=O)OCO3
emission maximum (in CC#N): 448 nm

SMILES: COc1ccc(/C=C2\OC(=O)c3cc(N)ccc32)cc1
emission maximum (in CC#N): 450.25 nm
emission maximum (in CC(C)=O): 446.03 nm
emission maximum (in CC(C)CO): 474.83 nm
emission maximum (in CC(C)O): 481.23 nm
emission maximum (in CCCO): 482.63 nm
emission maximum (in CCO): 485.44 nm
emission maximum (in CCOC(C)=O): 445.04 nm
emission maximum (in CCOCC): 443.26 nm
emission maximum (in CO): 486.14 nm

SMILES: CCOC(=O)c1c2c3c(ccc(F)c3c3cc4c(cc13)[Si](C)(C)O[Si]4(C)C)N(C)C2=O
emission maximum (in CC#N): 411 nm

SMILES: Cc1c(C)n2c(COC(=O)c3ccccc3I)c(C)c(=O)n2c1=O
emission maximum (in CCO): 461 nm

SMILES: N#Cc1nn(-c2ccc(F)cc2)nc1N1CCCC1
emission maximum (in CC#N): 422 nm

SMILES: O=C(O)c1ccc2ccc3cccc4ccc1c2c34
emission maximum (in C1CCOC1): 387 nm
emission maximum (in CC#N): 389 nm
emission maximum (in CCCCCC): 387 nm
emission maximum (in CCO): 380 nm
emission maximum (in CN(C)C=O): 388 nm
emission maximum (in CO): 380 nm
emission maximum (in Cc1ccccc1): 392 nm
emission maximum (in ClCCl): 394 nm

SMILES: O=c1c2cc(-n3c4ccccc4c4ccccc43)ccc2sc2ccc(-n3c4ccccc4c4ccccc43)cc12
emission maximum (in C1CCOC1): 460 nm
emission maximum (in CCCCCC): 438 nm
emission maximum (in Cc1ccccc1): 455.5 nm
emission maximum (in ClC(Cl)Cl): 493.5 nm
emission maximum (in ClCCl): 495 nm

SMILES: CC1=C(C2=C(C)C(C)=[N+]3C2=Cc2cc(C)c(C)n2[B-]3(F)F)C2=Cc3cc(C)c(C)n3[B-](F)(F)[N+]2=C1C
emission maximum (in ClCCl): 598 nm

SMILES: COc1cc(/C=C/c2ccccc2)cc(OC)c1
emission maximum (in C1CCCCC1): 364 nm
emission maximum (in CC#N): 390 nm
emission maximum (in CC(C)O): 382 nm
emission maximum (in CCCCOCCCC): 372 nm
emission maximum (in CCOC(C)=O): 382 nm
emission maximum (in CCOCC): 374 nm

SMILES: CN(C)c1ccc(/C=C/C=C/c2ccc(C#N)cc2)cc1
emission maximum (in CC#N): 589 nm
emission maximum (in CCCC#N): 579 nm
emission maximum (in CCCCCC): 440 nm
emission maximum (in CCOCC): 509 nm

SMILES: Cc1cc(C2(c3cc(C)c(O)c(Br)c3)OS(=O)(=O)c3ccccc32)cc(Br)c1O
emission maximum (in C1CCOC1): 492 nm
emission maximum (in C1COCCO1): 450 nm
emission maximum (in CC#N): 497 nm
emission maximum (in CC(C)(C)O): 473 nm
emission maximum (in CC(C)=O): 490 nm
emission maximum (in CC(C)O): 498 nm
emission maximum (in CCCCCO): 485 nm
emission maximum (in CCCO): 505 nm
emission maximum (in CCO): 507 nm
emission maximum (in CCOC(C)=O): 478 nm
emission maximum (in CCOCC): 476 nm
emission maximum (in CO): 502 nm

SMILES: O=c1c2ccccc2sc2ccc(-n3c4ccccc4c4ccccc43)cc12
emission maximum (in C1CCOC1): 452.5 nm
emission maximum (in CCCCCC): 436 nm
emission maximum (in Cc1ccccc1): 447.5 nm
emission maximum (in ClC(Cl)Cl): 486.5 nm
emission maximum (in ClCCl): 483.5 nm

SMILES: COC(=O)CC1(C(=O)O)Oc2c(c(C(C)=O)c3c(c2C(C)=O)OCO3)O1
emission maximum (in CC#N): 547 nm

SMILES: CN(C)c1ccc(C2=[N+]3C(=Nc4c(-c5ccc(O)cc5)cc(-c5ccc(N(C)C)cc5)n4[B-]3(F)F)C(c3ccc(O)cc3)=C2)cc1
emission maximum (in C1CCOC1): 815 nm
emission maximum (in CS(C)=O): 832 nm
emission maximum (in Cc1ccccc1): 813 nm

SMILES: CCN(CC)c1ccc(-c2nc3c(c4c2-c2ccc(C#N)cc2CC4)-c2ccc(C#N)cc2CC3)cc1
emission maximum (in C1CCOC1): 499 nm
emission maximum (in CC#N): 525 nm
emission maximum (in CCCCCC): 455 nm
emission maximum (in CCOC(C)=O): 494 nm
emission maximum (in CO): 525 nm
emission maximum (in CS(C)=O): 541 nm
emission maximum (in Cc1ccccc1): 474 nm
emission maximum (in ClCCl): 493 nm

SMILES: COc1cc(/C=C/C(=O)O)ccc1O
emission maximum (in O): 413 nm

SMILES: O=S(=O)(c1ccc(-c2ccc(-c3nc4c5ccccc5c5ccccc5c4n3-c3ccccc3)cc2)cc1)c1ccc(-c2ccc(-c3nc4c5ccccc5c5ccccc5c4n3-c3ccccc3)cc2)cc1
emission maximum (in C1CCOC1): 451 nm
emission maximum (in CC#N): 479 nm
emission maximum (in CC(C)=O): 468 nm
emission maximum (in CC(C)OC(C)C): 437 nm
emission maximum (in CCCCCC): 404 nm
emission maximum (in CCCCOCCCC): 420 nm
emission maximum (in CCN(CC)CC): 413 nm
emission maximum (in CCOC(C)=O): 448 nm
emission maximum (in CCOCC): 438 nm
emission maximum (in CN(C)C=O): 478 nm
emission maximum (in ClC(Cl)Cl): 450 nm
emission maximum (in ClCCl): 461 nm
emission maximum (in c1ccc2c(c1)c1ccccc1n2-c1ccc(-c2ccc(-n3c4ccccc4c4ccccc43)cc2)cc1): 443 nm

SMILES: OB(O)c1ccc(-c2ccc(N(c3ccccc3)c3ccccc3)cc2)cc1
emission maximum (in C1CCCCC1): 384 nm
emission maximum (in C1CCOC1): 410 nm
emission maximum (in CCO): 422.4 nm
emission maximum (in CCOCC): 398 nm
emission maximum (in CO): 432 nm

SMILES: Cc1cc(C)c(C)c(-c2cc(-c3c(C)c(C)cc(C)c3C)c3ccc4c(-c5c(C)c(C)cc(C)c5C)cc(-c5c(C)c(C)cc(C)c5C)c5ccc2c3c54)c1C
emission maximum (in ClCCl): 412 nm

SMILES: O=C1NC(=O)/C(=C\c2ccccc2O)S1
emission maximum (in C1CCCCC1): 397 nm
emission maximum (in C1COCCO1): 418 nm
emission maximum (in CC#N): 428 nm
emission maximum (in CN(C)C=O): 424 nm
emission maximum (in CO): 428 nm
emission maximum (in O): 480 nm
emission maximum (in OCC(O)CO): 451 nm
emission maximum (in OCCO): 440 nm

SMILES: CC1CC=C(c2ccc(-c3ccc(C#N)s3)s2)CC1 (stereo unspecified)
emission maximum (in C1CCOC1): 443 nm
emission maximum (in CC#N): 448 nm
emission maximum (in CCCCCC): 427 nm
emission maximum (in CCO): 443 nm
emission maximum (in OCCOCCO): 451 nm
emission maximum (in c1ccncc1): 452 nm

SMILES: COc1cc(/C=C/c2cc[n+](Cc3ccc(Br)cc3)cc2)ccc1O
emission maximum (in CC#N): 557 nm
emission maximum (in CC(C)=O): 562 nm
emission maximum (in CC(C)CO): 556 nm
emission maximum (in CC(C)O): 559 nm
emission maximum (in CCC#N): 559 nm
emission maximum (in CCCCCCO): 553 nm
emission maximum (in CCCCCO): 554 nm
emission maximum (in CCCCO): 558 nm
emission maximum (in CCCO): 559 nm
emission maximum (in CCO): 564 nm
emission maximum (in CN(C)C=O): 565 nm
emission maximum (in CN(C)P(=O)(N(C)C)N(C)C): 567 nm
emission maximum (in CO): 566 nm
emission maximum (in CS(C)=O): 568 nm

More lines, now with the values ahead:

emission maximum (in CO): 558 nm
SMILES: CCOC(=O)CCCCCn1c2ccccc2c(=O)c2cc3c(cc21)c(=O)c1cc(I)ccc1n3CCCCCC(=O)OCC

emission maximum (in C1CCOC1): 468 nm
SMILES: N#Cc1c(N2CCCCC2)cc(-c2ccc(Br)cc2)c2c1CCc1ccccc1-2

emission maximum (in ClCCl): 517 nm
SMILES: CCCCCCN1C(=O)c2cccc3c(-c4ccc(-c5cc(-c6ccccc6)nn5-c5ccccc5)s4)ccc(c23)C1=O

emission maximum (in C1COCCO1): 732 nm
SMILES: COc1ccc(/C=C/C2=CC(/C=C/c3ccc(OC)cc3)=[N+]3C2=C(c2ccc(-c4ccc5ccccc5n4)s2)c2c(/C=C/c4ccc(OC)cc4)cc(/C=C/c4ccc(OC)cc4)n2[B-]3(F)F)cc1

emission maximum (in ClCCl): 604 nm
SMILES: Cc1cc(C)c(C2=C3C=C(/C=C/C(=O)OCc4ccccc4)C=[N+]3[B-](F)(F)n3cc(/C=C/C(=O)OCc4ccccc4)cc32)c(C)c1

emission maximum (in ClCCl): 418 nm
SMILES: COC(=O)c1c(-c2cc3ccccc3oc2=O)nn(-c2cccc(Cl)c2)c1C(=O)OC

emission maximum (in ClCCl): 620 nm
SMILES: COc1ccc(-c2c3cc4ccccc4cc3c(-c3ccc(OC)cc3)c3cc4ccccc4cc23)cc1

emission maximum (in ClCCl): 432 nm
SMILES: CCCCN1C(=O)c2cccc3c(C#CC#Cc4ccc5c6c(cccc46)C(=O)N(CCCC)C5=O)ccc(c23)C1=O

emission maximum (in CC#N): 642 nm
emission maximum (in CCCCCCC): 511 nm
emission maximum (in CO): 567 nm
emission maximum (in O): 552 nm
SMILES: O=[N+]([O-])c1ccc(/C=C/c2c[nH]c3ccccc23)cc1

emission maximum (in C1CCCCC1): 413.38 nm
emission maximum (in C1CCOC1): 411.8 nm
emission maximum (in CC#N): 408.05 nm
emission maximum (in CCCCCC): 411.8 nm
emission maximum (in CCO): 408.84 nm
emission maximum (in CN(C)C=O): 409.82 nm
emission maximum (in CO): 408.05 nm
emission maximum (in ClC(Cl)Cl): 410.54 nm
emission maximum (in ClCCl): 409.82 nm
SMILES: Fc1ccc(-c2cc3ccc4cc(-c5ccc(F)cc5)cc5ccc(c2)c3c45)cc1

emission maximum (in C1COCCO1): 518 nm
SMILES: O=C1OC(c2ccccc2)=C/C1=C\c1ccc([N+](=O)[O-])cc1

emission maximum (in C1CCOC1): 386.5 nm
SMILES: C#Cn1c(-c2cc(-c3nc4ccccc4n3C#C)cc(-c3nc4ccccc4n3C#C)c2)nc2ccccc21

emission maximum (in CCCCCC): 656 nm
SMILES: CC(C)[Si](C#Cc1c2nc3ccccc3nc2c(C#C[Si](C(C)C)(C(C)C)C(C)C)c2nc3c(ccc4ccccc43)nc12)(C(C)C)C(C)C

emission maximum (in CCCCCCC): 471 nm
SMILES: c1ccc2cc3c(cc2c1)-c1cccc2cc4ccccc4c-3c12
